Data reported in PubChem BioAssay AID1963870 (Molecular Pharmacology Branch, DTP, NCI, 2024).
pIC50: −log10 of the molar value. Several values for one entry are separate records, joined by “and”; a condition that tells them apart may be missing. Equal entries are not always repeated.

Test system: 292921-168-R-J2-PDC KRAS tumor spheroid viability
Assay: Anticancer human tumor 292921-168-R-J2-PDC patient-derived pancreatic carcinoma cell line growth inhibition [KRAS2]
Conditions: spheroids with HUVEC and MSC; for viability, T/C: stronger effect = lower value
Procedure, shortened: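 Combination screen of spheroid viability in tumor-cell co-cultures with endothelial (HUVEC) and mesenchymal stem cell stroma. Each agent was tested in half-log dilutions, topping at clinical Cmax or at 10 microM without a known Cmax.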

[1] = curve of first compound, second compound 0.1 µM
[2] = curve of first compound, second compound 0.316 µM
[3] = curve of first compound, second compound 1 µM
[4] = curve of first compound, second compound 3.16 µM
[5] = curve of first compound, second compound 10 µM
[6] = second compound 0.1 µM, first compound 0.01 µM
[7] = second compound 0.1 µM, first compound 0.0316 µM
[8] = second compound 0.1 µM, first compound 0.1 µM
[9] = second compound 0.1 µM, first compound 0.316 µM
[10] = second compound 0.1 µM, first compound 1 µM
[11] = second compound 0.316 µM, first compound 0.01 µM
[12] = second compound 0.316 µM, first compound 0.0316 µM
[13] = second compound 0.316 µM, first compound 0.1 µM
[14] = second compound 0.316 µM, first compound 0.316 µM
[15] = second compound 0.316 µM, first compound 1 µM
[16] = second compound 1 µM, first compound 0.01 µM
[17] = second compound 1 µM, first compound 0.0316 µM
[18] = second compound 1 µM, first compound 0.1 µM
[19] = second compound 1 µM, first compound 0.316 µM
[20] = second compound 1 µM, first compound 1 µM
[21] = second compound 3.16 µM, first compound 0.01 µM
[22] = second compound 3.16 µM, first compound 0.0316 µM
[23] = second compound 3.16 µM, first compound 0.1 µM
[24] = second compound 3.16 µM, first compound 0.316 µM
[25] = second compound 3.16 µM, first compound 1 µM
[26] = second compound 10 µM, first compound 0.01 µM
[27] = second compound 10 µM, first compound 0.0316 µM
[28] = second compound 10 µM, first compound 0.1 µM
[29] = second compound 10 µM, first compound 0.316 µM
[30] = second compound 10 µM, first compound 1 µM
[31] = second compound 0.1 µM, first compound 3.16 µM
[32] = second compound 0.316 µM, first compound 3.16 µM
[33] = second compound 1 µM, first compound 3.16 µM
[34] = second compound 3.16 µM, first compound 3.16 µM
[35] = second compound 10 µM, first compound 3.16 µM
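Also: drug exposure lasted seven days after spheroids formed for three days.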
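For viability, T/C in this document: percent of DMSO vehicle control viability which is 100%.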

SMILES | pIC50 [1] | pIC50 [2] | pIC50 [3] | pIC50 [4] | pIC50 [5] | viability, T/C [7] [%] | viability, T/C [8] [%] | viability, T/C [9] [%] | viability, T/C [10] [%] | viability, T/C [12] [%] | viability, T/C [13] [%] | viability, T/C [14] [%] | viability, T/C [15] [%] | viability, T/C [17] [%] | viability, T/C [18] [%] | viability, T/C [19] [%] | viability, T/C [20] [%] | viability, T/C [22] [%] | viability, T/C [23] [%] | viability, T/C [24] [%] | also measured
CCN1CCN(Cc2ccc(Nc3ncc(F)c(-c4cc(F)c5nc(C)n(C(C)C)c5c4)n3)nc2)CC1 + C=CC(=O)N1CCN(c2nc(=O)n(-c3c(C)ccnc3C(C)C)c3nc(-c4c(O)cccc4F)c(F)cc23)C(C)C1 | 7.24 | 7.07 | 6.97 | 7.95 | > 8.50 | 54.4 | 45.6 | 30.5 | 22.1 | 64.4 | 47.6 | 35.3 | 26.7 | 66.2 | 50.4 | 37.2 | 22.6 | 45 | 34.6 | 28.9 | viability, T/C (second compound 0.1 µM, first compound 0.00316 µM): 95%; viability, T/C [6]: 78%; viability, T/C (second compound 0.316 µM, first compound 0.00316 µM): 95.7%; viability, T/C [11]: 82.4%; viability, T/C (second compound 1 µM, first compound 0.00316 µM): 96.8%; viability, T/C [16]: 82%; viability, T/C (second compound 3.16 µM, first compound 0.00316 µM): 57.7%; viability, T/C [21]: 50%; viability, T/C [25]: 21.2%; viability, T/C (second compound 10 µM, first compound 0.00316 µM): 18.5%; viability, T/C [26]: 23.9%; viability, T/C [27]: 23.7%; viability, T/C [28]: 22.9%; viability, T/C [29]: 20.4%; viability, T/C [30]: 6.06%
CCNC(=O)CC1N=C(c2ccc(Cl)cc2)c2cc(OC)ccc2-n2c(C)nnc21 (configuration not stated) | – | – | – | – | – | – | – | – | – | – | – | – | – | – | – | – | – | – | – | – | viability, T/C (compound 0.0316 µM): 97.6% and 105% (2×); viability, T/C (compound 0.1 µM): 101% and 90.5% and 99.3%; viability, T/C (compound 0.316 µM): 68.9% and 65.5% and 77.4%; viability, T/C (compound 1 µM): 61.3% and 61.7% and 65.3%; viability, T/C (compound 3.16 µM): 55.7% and 53.3% and 49.1%; viability, T/C (compound 10 µM): 47.1% and 38.7% and 48.1%; pIC50 (curve of compound): < 5.00 and 5.53 and 5.32
CC1(C)CCC(CN2CCN(c3ccc(C(=O)NS(=O)(=O)c4ccc(NCC5CCOCC5)c([N+](=O)[O-])c4)c(Oc4cnc5[nH]ccc5c4)c3)CC2)=C(c2ccc(Cl)cc2)C1 + CNCc1ccccc1-c1csc(C(C)Nc2nc(C)nc3cc(OC)c(OC)cc23)c1 | 5.71 | 5.67 | 5.86 | > 7.50 | > 7.50 | 94.3 | 93.4 | 102 | 88.4 | 87.7 | 86.9 | 94.4 | 86.6 | 60.5 | 62.5 | 68.2 | 66.6 | 0.12 | 1.9 | 0.25 | viability, T/C [31]: 22%; viability, T/C (second compound 0.1 µM, first compound 10 µM): 8.05%; viability, T/C [32]: 30.8%; viability, T/C (second compound 0.316 µM, first compound 10 µM): 6.47%; viability, T/C [33]: 13%; viability, T/C (second compound 1 µM, first compound 10 µM): 5.94%; viability, T/C [25]: 0.79%; viability, T/C [34]: 0.4%; viability, T/C (second compound 3.16 µM, first compound 10 µM): 0.64%; viability, T/C [27]: 0.08%; viability, T/C [28]: 0.08%; viability, T/C [29]: 0.23%; viability, T/C [30]: 0.08%; viability, T/C [35]: 0.09%; viability, T/C (second compound 10 µM, first compound 10 µM): 0.28%
CC(=O)OC12COC1CC(O)C1(C)C(=O)C(O)C3=C(C)C(OC(=O)C(O)C(NC(=O)OC(C)(C)C)c4ccccc4)CC(O)(C(OC(=O)c4ccccc4)C21)C3(C)C (configuration not stated) + COc1cc2nc(C)nc(NC(C)c3cc(N)cc(C(F)(F)F)c3)c2cc1OC1CCOC1 | > 8.00 | > 8.00 | > 8.00 | > 8.00 | > 8.00 | 15.2 | 10.7 | 12.1 | 14 | 14.7 | 10.9 | 12.6 | 14.7 | 16.2 | 13.6 | 10.9 | 16.1 | 13.4 | 11.2 | 11.4 | viability, T/C [6]: 13.7%; viability, T/C [31]: 19%; viability, T/C [11]: 13.7%; viability, T/C [32]: 18.8%; viability, T/C [16]: 13.3%; viability, T/C [33]: 18.9%; viability, T/C [21]: 12.1%; viability, T/C [25]: 14.1%; viability, T/C [34]: 18.7%; viability, T/C [26]: 13.5%; viability, T/C [27]: 13.3%; viability, T/C [28]: 14%; viability, T/C [29]: 12.8%; viability, T/C [30]: 11.9%; viability, T/C [35]: 13.2%
